Like-named read-outs stand apart in the source and are kept apart here. No end group written: not given here.
Experiments:
SW480 cells [1] = details: for EC50: 48 h; for percentage of viability SW480 cells: human, 150 µM
SW620 cells [2] = details: for EC50: 48 h; for percentage of cell viability SW620 cells: human, 150 µM
Hemolytic activity assay = type: cell-based; details: human, erythrocytes; 150 μM peptide; relative to 0.1% Triton X-100; read-out: %HC50 at 150 μM (percentage of hemolysis)
SW480 cells [3] = assay: cells; details: Homo sapiens, SW480, 48 h
SW620 cells [4] = assay: cells; details: Homo sapiens, SW-620, 48 h
SW480 cells [5] = assay: Annexin V-Cy3/6-CFDA staining, SW480; type: cell-based, Human; details: EC50 concentration, 24 and 48 h
Protocol: (§1) The presence of phosphatidylserine at the cell surface was detected by phosphatidylserine binding protein annexin V conjugated with Cy3 using the commercially available Annexin V-Cy3 apoptosis detection kit (APOAC, Apoptosis Detection Kit, Sigma). […] The PBS and binding buffer were used to wash the adherent cells and the washed cell adherents were suspended in 50 µl of Ann-Cy3 and 6-CFDA. Then, the plates were incubated for 10 min in the dark. Afterwards, the excess label was removed by washing the cells with binding buffer. EVOS M7000 digital inverted fluorescence microscope (ThermoFisher Scientific; Waltham, MA, U.S.A.) was used to observe Ann-Cy3 and 6-CFDA-labeled cells. This assay allowed one to differentiate live cells (green), necrotic cells (red), and apoptotic cells (red nuclei and green cytoplasm). The percentage of cells reflecting apoptotic and necrotic cells was manually calculated. Data were collected for three replicates and used to calculate the respective means and standard deviations.

SW620 cells [6] = assay: Annexin V-Cy3/6-CFDA staining, SW620; type: cell-based, Human; details: EC50 concentration, 24 and 48 h
Protocol: as §1

| Molecule | EC50 (SW480 cells [1]) | percentage of viability SW480 cells (SW480 cells [1]) | EC50 (SW620 cells [2]) | percentage of cell viability SW620 cells (SW620 cells [2]) | hemolysis at 150 μM (Hemolytic activity assay) | EC50 (SW480 cells [3]; read-out: EC50 SW480) | viability at 150 µM (SW480 cells [3]; read-out: percentage of viability SW480 cells) | EC50 (SW620 cells [4]; read-out: EC50 SW620) | viability at 150 µM (SW620 cells [4]; read-out: percentage of cell viability SW620 cells) | Annexin V-Cy3/6-CFDA staining result (SW480 cells [5]) | Annexin V-Cy3/6-CFDA staining result (SW620 cells [6]) |
| --- | --- | --- | --- | --- | --- | --- | --- | --- | --- | --- | --- |
| PARDVLNTTSG-NH2 [P264-G274, PARDVLNTTSG-NH2] | 90.98 ± 0.75 µM | 41.6% | 11.3 ± 0.52 µM | 16.5% | 12.2% | – | – | – | – | – | – |
| NNETYFNAVKP-NH2 [Loop1-PS2Aa, NNETYFNAVKP-NH2] | 23.8 ± 1.25 µM | 16% | 106 ± 1.67 µM | 46.8% | 18.1% | – | – | – | – | – | – |
| FKPQSGGGKCF-NH2 [Loop1-HCoV-229E, FKPQSGGGKCF-NH2] | 125 ± 1.32 µM | 56.2% | > 150 µM | 55.2% | 9.2% | – | – | – | – | – | – |
| TYFNAVKPPITA-NH2 [Loop2-PS2Aa, TYFNAVKPPITA-NH2] | 93 ± 0.98 µM | 39.5% | 16 ± 0.69 µM | 24.1% | 9.4% | – | – | – | – | – | – |
| O=c1[nH]cc(F)c(=O)[nH]1 [5-FU, 5-Fluorouracil] | – | – | – | – | – | 24.4 ± 0.82 µM | 18.9% | 11.9 ± 1.2 µM | 2.8% | Same results | Same results |
| H-FLGWLFKVASK-NH2 [A4W-GGN5, FLGWLFKVASK-NH2, reference compound] | 98.6 ± 1.17 µM | 41.8% | 22.1 ± 1.63 µM | 32.2% | 23% | – | – | – | – | – | – |
